Data as given in patent US7807672B2, “Compounds that are ERK inhibitors” (Schering Corporation, priority 2006, dated 2010).

biological target: fully phosphorylated, active Mouse ERK2 protein (Mus musculus, UniProt P63085); assay: Active ERK2 assay (AERK2), IMAP format; type: biochemical; details: activated ERK2, IMAP fluorescence polarization, 30 μM ATP
Experimental: 14 μl of kinase buffer (10 mM Tris.HCl pH 7.2, 10 mM MgCl2, 0.01% Tween-20, 1 mM DTT) containing 0.4 ng unphosphorylated Mouse ERK2 protein was added to each well of a black 384-well assay plate. […] DMSO concentration during initial incubation is 6.7%. […] DMSO concentration during ERK activation was 4%. After one hour, reactions were terminated by addition of 60 μl IMAP detections beads in binding buffer (Molecular Devices). Binding was allowed to equilibrate for 30 minutes before reading the plate on an LJL Analyst Fluorescence Polarization plate reader.
Activated ERK2 activity was also determined in the IMAP assay format using the procedure outlined above. […] Reactions proceeded for 30 minutes before termination by addition of 60 μl IMAP detection beads in binding buffer. Plates were read as above after 30 minute binding equilibration.

fully phosphorylated, active Mouse ERK2 protein, sequence (P63085 whole entry): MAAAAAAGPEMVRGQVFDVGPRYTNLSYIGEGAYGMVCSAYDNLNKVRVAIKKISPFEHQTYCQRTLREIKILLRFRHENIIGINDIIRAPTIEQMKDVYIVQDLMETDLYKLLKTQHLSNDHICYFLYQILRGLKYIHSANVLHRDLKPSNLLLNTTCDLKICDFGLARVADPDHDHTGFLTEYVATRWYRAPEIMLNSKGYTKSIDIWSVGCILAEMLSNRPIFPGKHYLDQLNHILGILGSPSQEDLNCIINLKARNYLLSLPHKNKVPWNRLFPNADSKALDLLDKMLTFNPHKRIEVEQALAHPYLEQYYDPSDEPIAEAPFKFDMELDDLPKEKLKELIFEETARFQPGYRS

SMILES	IC50
O=C(Nc1ccc(O)c(C(F)(F)F)c1)[C@@H]1CCN(CC(=O)N2CCN(c3ccc(-c4ncccn4)cc3)CC2)C1 [Example 1]	76 nM
O=C(Nc1ccc(O)c(Cl)c1)[C@@H]1CCN(CC(=O)N2C[C@@H]3C[C@H]2CN3c2ccc(-c3ncccn3)cc2)C1 [Example 19]	34 nM
CC(=O)c1cnc(-c2ccc(N3CCN(C(=O)CN4CC[C@@H](C(=O)Nc5ccc(O)c(Cl)c5)C4)CC3)cc2)nc1 [Example 20]	44 nM
C/C(=N\O)c1cnc(-c2ccc(N3CCN(C(=O)CN4CC[C@@H](C(=O)Nc5ccc(O)c(Cl)c5)C4)CC3)cc2)nc1 [Example 23]	57 nM
CO/N=C(\C)c1cnc(-c2ccc(N3CCN(C(=O)CN4CC[C@@H](C(=O)Nc5ccc(O)c(Cl)c5)C4)CC3)cc2)nc1 [Example 25]	18 nM
O=C(Nc1ccc(O)c(C2CC2)c1)[C@@H]1CCN(CC(=O)N2CCN(c3ccc(-c4ncccn4)cc3)CC2)C1 [Example 119]	39 nM
CC(C)c1cc(NC(=O)[C@@H]2CCN(CC(=O)N3C[C@@H]4C[C@H]3CN4c3ccc(-c4ncccn4)cc3)C2)ccc1O [Example 196]	38 nM
CC(C)c1cc(NC(=O)[C@@H]2CCN(CC(=O)N3C[C@@H]4C[C@H]3CN4c3ccc(-c4cnccn4)cc3)C2)ccc1O [Example 197]	40 nM
O=C(Nc1ccc(O)c(-c2ccc(F)cc2)c1)[C@@H]1CCN(CC(=O)N2CCN(c3ccc(-c4ncccn4)cc3)CC2)C1 [Example 212]	53 nM
